Experimental data published in patent US11339447B2, “System and method for determining Kareniticin sensitivity on cancer” (CROWN BIOSCIENCE, INC. (TAICANG), priority 2017, dated 2022).

How the values were obtained:
Experiment in all cases: karenitecin treatment of PDX model
Type in all cases: in vivo
Set-up in all cases: key to Response: responder: responded to karenitecin treatment (AUC<0.5 and TGI>0.8); non_responder: did not respond to karenitecin treatment (AUC>0.5 and TGI<0.6)
Details in all cases: karenitecin treatment for two weeks
PDX CR2524 = tested on: PDX CR2524
Protocol: (§1) A cohort of 48 PDX models in 8 cancers were used in this study. Those models were subject to karenitecin treatment for two weeks. Both tumor growth inhibition (TGI) and median AUC (area under curve) ratio, a newly developed metric to evaluate drug efficacy, were calculated (Table 1). Those models can be divided into two categories according to TGI and median AUC ratio.

PDX PA0527 = tested on: PDX PA0527
Protocol: as §1

PDX LU1429 = tested on: PDX LU1429
Protocol: as §1

PDX CR1560 = tested on: PDX CR1560
Protocol: as §1

PDX LU1116 = tested on: PDX LU1116
Protocol: as §1

PDX CR2520 = tested on: PDX CR2520
Protocol: as §1

PDX CR0133 = tested on: PDX CR0133
Protocol: as §1

PDX LU0858 = tested on: PDX LU0858
Protocol: as §1

PDX CR1451 = tested on: PDX CR1451
Protocol: as §1

PDX GA3055 = tested on: PDX GA3055
Protocol: as §1

PDX CR3085 = tested on: PDX CR3085
Protocol: as §1

PDX PA3029 = tested on: PDX PA3029
Protocol: as §1

PDX LU1144 = tested on: PDX LU1144
Protocol: as §1

PDX LU1271 = tested on: PDX LU1271
Protocol: as §1

## CC[C@@]1(O)C(=O)OCc2c1cc1n(c2=O)Cc2c-1nc1ccccc1c2CC[Si](C)(C)C [karenitecin]
PDX CR2524
  Median AUC ratio: 0.333
  Response: responder
  TGI: 1.120
PDX PA0527
  Median AUC ratio: 0.316
  Response: responder
  TGI: 0.996
PDX LU1429
  Median AUC ratio: 0.076
  Response: responder
  TGI: 1.054
PDX CR1560
  Median AUC ratio: 0.397
  Response: responder
  TGI: 1.146
PDX LU1116
  Median AUC ratio: 0.111
  Response: responder
  TGI: 1.250
PDX CR2520
  Median AUC ratio: 0.914
  Response: non_responder
  TGI: 0.288
PDX CR0133
  Median AUC ratio: 0.275
  Response: responder
  TGI: 0.905
PDX LU0858
  Median AUC ratio: 0.027
  Response: responder
  TGI: 1.000
PDX CR1451
  Median AUC ratio: 0.069
  Response: responder
  TGI: 1.173
PDX GA3055
  Median AUC ratio: −0.072
  Response: responder
  TGI: 1.215
PDX CR3085
  Median AUC ratio: 0.019
  Response: responder
  TGI: 1.051
PDX PA3029
  Median AUC ratio: 0.768
  Response: non_responder
  TGI: 0.423
PDX LU1144
  Median AUC ratio: 1.056
  Response: non_responder
  TGI: 0.378
PDX LU1271
  Median AUC ratio: −0.007
  Response: responder
  TGI: 1.081
